Results taken from patent publication US20110008347A1, “CANCER-RELATED PROTEIN KINASES” (Agency for Science ,Technology and Research, priority 2006, published 2011).

Legend:
HuH7 cells = experiment: AFP production in HuH7 cells after exposure to FGFR inhibitor; format: cell-based, human; details: HuH7, 0, 1, 5 and 10 μM (FIG. 15)
Procedure: (§1) Supernatants from the respective FGF19 stimulation and siRNA experiments were subjected to AFP ELISA assay using the DELFIA hAFP kit (Perkin Elmer, Boston, Mass.), performed according to manufacturer's protocol. The readout was converted to concentration (ng/mL) using the standard curve derived from the solutions provided in the kit. AFP production by the cells was subsequently normalized to the number of cells in each well. The cell number was determined by ATP bioluminescence Cell-Titer Glo assay (Promega, Madison, Wis.) using protocol as described by the manufacturer.

HEK293 = experiment: Viability of non-cancerous cell line HEK293 exposed to FGFR inhibitor; format: cell-based; details: non-cancerous cell line HEK293, data not shown
HuH7 = experiment: Viability of HCC cell lines (HuH7) exposed to FGFR inhibitor; format: cell-based, human
FGFR4 [1] = biological target: T1, FGFR4 (Homo sapiens, UniProt P22455); experiment: FGF19 ligand stimulation, AFP ELISA, HepG2; format: cell-based; parameters: endogenous in cells; details: HepG2, 50 and 100 ng/ml FGF19 (FIG. 12)
Procedure: (§2) HepG2 or HuH7 cells were seeded into 96-well plates and allowed to attach overnight. They were serum-starved for 24 h before addition of heparin. Two hours later, FGF19 (R&D Systems, Minneapolis, Minn., 50-100 ng/mL final concentration) was administered. After 8 hours, aliquots of the supernatant were harvested for AFP ELISA assay as described below. Similar FGF19 stimulations were performed in 10 cm dishes for immunoblot detection of phospho-FRS2α.
as §1

FGFR4 [2] = biological target: T1, FGFR4; experiment: FGF19 ligand stimulation, AFP ELISA, HuH7; format: cell-based; parameters: stimulation of FGFR4 in the HCC cell line HuH7 using 50 and 100 ng/ml of the specific ligand FGF19; endogenous in cells; host or cells: HuH7
Procedure: as §2, §1

T1 sequence (P22455 22-802): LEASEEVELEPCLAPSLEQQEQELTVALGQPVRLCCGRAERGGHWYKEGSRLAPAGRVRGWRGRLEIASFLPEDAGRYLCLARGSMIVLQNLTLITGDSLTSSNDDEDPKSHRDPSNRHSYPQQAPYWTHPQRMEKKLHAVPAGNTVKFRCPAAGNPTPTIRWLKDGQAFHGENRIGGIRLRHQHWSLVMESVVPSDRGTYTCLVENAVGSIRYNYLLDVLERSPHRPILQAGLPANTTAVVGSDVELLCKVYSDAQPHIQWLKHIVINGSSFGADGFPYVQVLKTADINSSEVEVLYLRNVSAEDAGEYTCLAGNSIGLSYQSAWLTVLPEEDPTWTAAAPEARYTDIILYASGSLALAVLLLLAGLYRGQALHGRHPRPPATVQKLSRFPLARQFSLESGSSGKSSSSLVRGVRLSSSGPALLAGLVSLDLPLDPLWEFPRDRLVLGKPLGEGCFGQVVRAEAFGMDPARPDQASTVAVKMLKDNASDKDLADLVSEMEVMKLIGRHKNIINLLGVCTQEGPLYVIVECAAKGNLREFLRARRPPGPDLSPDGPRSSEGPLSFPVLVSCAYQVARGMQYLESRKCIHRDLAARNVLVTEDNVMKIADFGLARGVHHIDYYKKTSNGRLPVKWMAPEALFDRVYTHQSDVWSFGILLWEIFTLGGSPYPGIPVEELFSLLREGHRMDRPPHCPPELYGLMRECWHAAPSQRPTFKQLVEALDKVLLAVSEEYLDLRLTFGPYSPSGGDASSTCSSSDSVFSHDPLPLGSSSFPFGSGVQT

Row | Compound | AFP production (HuH7 cells) | LD50 (HEK293) [µM] | anti-proliferative effect (HuH7; HCC cell lines vs. non-cancerous cell line HEK293) | anti-proliferative effect (viability) (HuH7; HuH7 (FIG. 16)) | AFP production (FGFR4 [1]) | AFP production (FGFR4 [2]; HCC cell lines (FIG. 11, FIG. 12)) | AFP production (FGFR4 [2]; HuH7, 50 and 100 ng/ml FGF19 (FIG. 11))
1 | CCN(CC)CCCCNc1ncc2cc(-c3cc(OC)cc(OC)c3)c(NC(=O)NC(C)(C)C)nc2n1 [PD173074] | blocks AFP production | > 50 | exquisite anti-proliferative effect | exquisite anti-proliferative effect | – | – | –
2 | FGF19: specific ligand used for stimulation of FGFR4 (R&D Systems) | – | – | – | – | elevated AFP production | elevated AFP production | elevated AFP production
